Where a SMILES comes first, the peptide text is derived from it. The star is where a group is joined. Cbz = O=C(OCc1ccccc1)*; CH2F = FC*

Here are results for one molecule from patent publication US10617735B2, “Methods and compositions for preserving retinal ganglion cells” (Massachusetts Eye and Ear Infirmary, priority 2010, dated 2020).

The assay has as its system TNF-α. Nature of the assay: TNF-α level in the retina after ON injury (quantitative real-time RT-PCR). In kind it is in vivo, mouse. Conditions: one day after ON injury; intravitreal Z-VAD (300 uM) and/or Nec-1 (400 uM). The method, then:
Total RNA extraction, cDNA synthesis and PCR amplification have been performed as previously reported (Kayama et al., (2010) OPHTHALMIC RES 43:79-91). A real-time PCR assay was performed with Prism 7700 Sequence Detection System (Applied Biosystems, Foster City, Calif.). The primers are shown below in Table 1.
For relative comparison of each gene, the Ct value of real-time PCR data was analyzed with the ΔΔCt method and normalized to an endogenous control ([…].
To investigate whether TNF-α is involved in RGC cell death in mice subjected to optic nerve (ON) injury (induced by physical injury to the optic nerve), TNF-α level in the retina was measured using quantitative real-time RT-PCR. As depicted in FIG. 2A, at one day after ON injury, TNF-α mRNA levels increased almost 10- to 13-fold relative to non-injured mice.

For `COC(=O)CC(NC(=O)C(C)NC(=O)C(NC(=O)OCc1ccccc1)C(C)C)C(=O)CF` (stereo not drawn) [Z-VAD, Benzyloxycarbonyl-Val-Ala-Asp(OMe)-fluoromethylketone] (Cbz-Val-Ala-Asp(OMe)-CH2F; configuration not given here), the “increase of TNF-α levels after ON injury” value was “did not affect”.
